Results taken from paper PMC4595804, “A strategy to discover decoy chemokine ligands with an anti-inflammatory activity” (Scientific Reports, 2015).

Target: T1, mouse CCL17 (Mus musculus, UniProt Q9WUZ6)
T1 construct: purchased R&D systems
Experiment: Calcium responses induced by mouse CCL17, neutraligand protocol, CCR4+Gqi5+ HEK cells
Type: cell-based
Settings: 5 nM mouse CCL17 preincubated 1 h with compound; read-out: IC50, inhibition of mouse CCL17-evoked calcium signaling
Protocol: Dye loaded cells were placed in the FlexStation 3 (Molecular Devices). Calcium mobilization was measured at 401 and 475 nm emission fluorescence after excitation at 355 nm. For the primary screening, the ligands (50μl of chemokine mixed with DMSO or test compounds) were added to the cells at 40 s, followed by digitonin addition (50μl) at 100 s to the cells. Molecules were screened at a final concentration of 2μg/ml with 5 nM CCL17 or CCL22. […] Raw fluorescence data (at 401 and 475 nm) were exported and the ratio 401/475 was calculated. The calcium response values (height of peak response over baseline) were determined. Hits were selected by comparing the response amplitude at the time of the chemokine addition ± test compound. The Z’ factor[29] was calculated according to the following equation: Z’ = 1-(3SD+ + 3SD−)/|Ave+ − Ave−|, where SD+ and Ave+ are respectively the standard deviation and the mean value of the positive controls (chemokine + DMSO), while SD− and Ave− are respectively the standard deviation and the mean value of the negative controls (HEPES-BSA (0.1%) mixed with DMSO, or cells mixed with C-021). Hit molecules were confirmed by performing concentration-response curves and their half maximal inhibitory concentration (IC50) values were calculated using the Kaleidagraph software. […]
neutraligand. Human (○) or mouse (●) CCL17 (5nM) was preincubated with increasing […]

T1 sequence (Q9WUZ6 24-93): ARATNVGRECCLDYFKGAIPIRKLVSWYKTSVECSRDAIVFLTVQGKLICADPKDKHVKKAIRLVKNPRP

Work on `CC(C)=CCn1cnc2c1c(=O)n(C)c(=O)n2C` [GPN279, 1,3-dimethyl-7-(3-methylbut-2-enyl)-1H-purine-2,6(3H, 7H)-dione] yielded an IC50 of 5.2 ± 0.9 µM.
